{"source": "paper PMC7730438", "about": "“Generation of KS-58 as the first K-Ras(G12D)-inhibitory peptide presenting anti-cancer activity in vivo” (Scientific Reports, 2020)", "key": {"[1]": {"system": "A427 cells", "test": "Cell proliferation assay (CellTiter-Glo, 72 h)", "type": "cell-based, human", "settings": "A427 (G12D), peptide 30 µM, n = 4, ± SEM", "method": "(§1) A427 (ATCC HTB-53), A549 (ATCC CCL-185), H1975 (ATCC CRL-5908), PANC-1 (ATCC CRL-1469), MIA PaCa-2 (ATCC CRL-1420), and Capan-1 (ATCC HTB-79) cells were purchased from ATCC, and each cell was cultured in medium supplemented with 10% fetal bovine serum (FBS), according to the protocol recommended by the manufacture.\n(§2) The effect of peptides on cell proliferation of A427, A549, H1975, PANC-1, MIA PaCa-2, and Capan-1 cells was determined by 72 h exposure to peptides. Cells were seeded at 1000 cells/well in 96-well tissue culture plates in each growth media and allowed to adhere overnight on day 0. Peptides were solved in DMSO and then diluted with each growth media for a constant final DMSO concentration of 0.5%. Media in the wells were removed and replaced with diluted peptide solutions, and cells were incubated for 3 days. During the incubation, medium containing the peptides was replaced every day. Relative cell numbers were estimated using CellTiter-Glo assay kit (G7570, Promega, WI, USA) according to the manufacturer’s instructions. Luminescence was detected using SpectraMax i3x (MOLECULAR DEVICES, CA, USA). Cell proliferation rate (%) was calculated based on cell numbers at day 0 as 0% and at day 3 without peptide treatment as 100%."}, "[2]": {"system": "A549 cells", "test": "Cell proliferation assay (CellTiter-Glo, 72 h)", "type": "cell-based, human", "settings": "A549 (G12S), peptide 30 µM, n = 4, ± SEM", "method": "as §1, §2"}, "[3]": {"system": "Capan-1 cells", "test": "Cell proliferation assay (CellTiter-Glo, 72 h)", "type": "cell-based, human", "settings": "Capan-1 (G12V), peptide 30 µM, n = 4, ± SEM", "method": "as §1, §2"}, "[4]": {"system": "H1975 cells", "test": "Cell proliferation assay (CellTiter-Glo, 72 h)", "type": "cell-based, human", "settings": "H1975 (WT), peptide 30 µM, n = 4, ± SEM", "method": "as §1, §2"}, "[5]": {"system": "MIA PaCa-2 cells", "test": "Cell proliferation assay (CellTiter-Glo, 72 h)", "type": "cell-based, human", "settings": "MIA PaCa-2 (G12C), peptide 30 µM, n = 4, ± SEM", "method": "as §1, §2"}, "[6]": {"system": "PANC-1 cells", "test": "Cell proliferation assay (CellTiter-Glo, 72 h)", "type": "cell-based, human", "settings": "PANC-1 (G12D), peptide 30 µM, n = 4, ± SEM", "method": "as §1, §2"}, "[7]": {"target": "T1, K-Ras(G12D)^GDP–SOS1 interaction (Homo sapiens, UniProt P01116, G12D)", "T1 construct": "host or cells: HEK293T", "test": "Intracellular PPI inhibition assay using NanoBiT in HEK293T cells", "type": "cell-based", "settings": "peptide 30 µM, n = 4", "method": "(§3) Intracellular protein–protein interaction (PPI) inhibition assays were carried out using the NanoBiT system (Promega). Three kinds of plasmids with CMV promoters, which encodes human K-Ras(G12D) fusing SmBiT to the N-terminus, encodes human SOS1 fusing LgBiT to the C-terminus, and encodes human BRAF fusing LgBiT to the C-terminus, were prepared by Promega. Each combination of plasmids was transfected to HEK293T cells by FuGENE HD Reagent (E2312, […]). After 30 h incubation at 37 °C under 5% CO2, the cells were recovered, and seeded to 96-well tissue culture white plate with 10% FBS containing DMEM, and incubated overnight. Peptides were added to the plate and incubated for another 2 h. Nano-Glo (Promega, N2011) was directly added to the plate, and luminescence was immediately monitored. Intracellular K-Ras(G12D)^GDP–SOS1 and K-Ras(G12D)^GTP–BRAF interactions (%) were calculated based on no peptide treatment as 100% and only transfection of plasmid encoding LgBiT fusion protein as 0%."}, "[8]": {"target": "T2, K-Ras(G12D)^GTP–BRAF interaction (Homo sapiens, UniProt P01116, G12D)", "T2 construct": "host or cells: HEK293T", "test": "Intracellular PPI inhibition assay using NanoBiT in HEK293T cells", "type": "cell-based", "settings": "peptide 30 µM, n = 4", "method": "as §3"}, "[9]": {"test": "Stability of peptide in rat plasma (RP-HPLC)", "type": "in vitro ADME", "method": "The stability of KS-58 in rat plasma was also evaluated. The peptides were incubated with rat plasma at 37 °C for different time periods (0 and 24 h), and the remaining amount of peptide was then determined using RP-HPLC. By comparing the peak area of the peptide, the remaining amount of peptide after plasma incubation was roughly estimated.\nEach peptide (10 mM, 1 μL) was incubated with rat plasma (20 μL) prepared in house. […] The mixture was stored for 10 min at 4 °C and centrifuged at 15,000 rpm for 10 min at 4 °C. The supernatant was recovered and was directly supplied to RP-HPLC to determine the remaining amount of unmodified peptides in the sample."}, "[10]": {"test": "Pharmacokinetics study in mice, intravenous injection", "type": "in vivo", "method": "Prior to the in vivo anti-cancer activity evaluation, a preliminary pharmacokinetics (PK) study was completed using a 20 mg/kg intravenous injection. Plasma was collected at 15 min, 1 h, 4 h, and 24 h after injection. […] KS-58 was detected in plasma 15 min and 1 h after intravenous injection, but it was not detected at 4 h and 24 h, due to the limited detection ability of RP-HPLC. The concentration change indicated a two-compartment model (Fig. 5A).\nAnimal experiments were carried out at UNITECH Co. Ltd. (Chiba, Japan) in accordance with the guidelines of the Animal Care and Use Committee of UNITECH (approval No. AGR IMF-190807A-30). KS-58 was dissolved in DMSO and then tenfold diluted by saline. The peptide solution was injected intravenously to Slc:ICR male mice (8 weeks old; Japan SLC, Inc.) (20 mg/kg, n = 3). Blood samples were collected from the mice at 15 min, 1 h, 4 h, and 24 h after injection. The blood was chilled on ice and then centrifuged at 12,000 rpm for 3 min at 4 °C. Plasma protein was precipitated by acetonitrile, and the supernatant was recovered. The remaining peptides in prepared samples were analyzed by RP-HPLC as described above."}, "[11]": {"system": "PANC-1 orthotopic xenografts", "test": "Anti-cancer efficacy in PANC-1 orthotopic xenografts", "type": "in vivo, mice", "settings": "40 mg/kg iv once every 2 days for 4 weeks", "method": "To establish orthotropic xenograft tumor models, 2.5 × 10^6 cells/50 µL of PANC-1 cells were injected into the pancreas of BALB/cAJcl-nu/nu male mice (8 weeks old; CLEA Japan, Inc.). KS-58 was dissolved in DMSO and then tenfold diluted by saline. The peptide solution was then injected intravenously to the mice bearing tumors once every 2 days for 4 weeks (40 mg/kg, n = 7). Organ weights of the pancreas, liver, and kidney were measured."}, "[12]": {"settings": "rat plasma, incubation time 0 h"}}, "note": "“And” between values parts separate entries of the source, which are not always exact repeats. Equal values may be shown once. Starred links: 1 amine or outer side, 2 acyl side, 3 side chain; linkers in the order of their positions; H or OH if unused. Positions of bridges follow the written chain, without caps; N, C: chain ends. Non-standard residues stand in square brackets, D forms with d. Residues, ends and D or L forms follow the SMILES beside them. Phe(4-F) = N[C@@H](Cc1ccc(F)cc1)C(=O)O; X1 = CCCCCCC[C@H](N[*:1])C(=O)[*:2]; Nle = CCCC[C@H](N)C(=O)O; X2 = C(C[*:1])C[*:2]; βAla = NCCC(=O)O", "data": [{"smiles": "CCCCCCC[C@@H]1NC(=O)[C@@H]2CSCCCSC[C@@H](NC(=O)[C@H](Cc3c[nH]c4ccccc34)NC(=O)[C@@H]3CCCN3C(=O)[C@H](CC(=O)O)NC(=O)[C@H](Cc3ccc(F)cc3)NC(=O)[C@H](CO)NC1=O)C(=O)NCCC(=O)N1CCC[C@H]1C(=O)N[C@@H](CCCC)C(=O)N2", "note": "[KS-58, c[βAla-Pro-Nle-c(Cys-Anon-Ser-4fF-Asp-Pro-Trp-^DCys)]] (cyclo([βAla]P[Nle]C[X1]S[Phe(4-F)]DPW[dC]); linker 4-11 via X2)", "values": [{"measurement": "Cell proliferation (%)", "setting": "[1]", "result": "21.1% and 21.1 ± 5.5%"}, {"measurement": "Cell proliferation (%)", "setting": "[2]", "result": "81.3 ± 1.5", "unit": "%"}, {"measurement": "Cell proliferation (%)", "setting": "[3]", "result": "94.9 ± 2.2", "unit": "%"}, {"measurement": "Cell proliferation (%)", "setting": "[4]", "result": "92.7 ± 0.3", "unit": "%"}, {"measurement": "Cell proliferation (%)", "setting": "[5]", "result": "86.8 ± 2.3", "unit": "%"}, {"measurement": "Cell proliferation (%)", "setting": "[6]", "result": "50.1% and 50.1 ± 4.1%"}, {"measurement": "Intracellular K-Ras(G12D)^GDP–SOS1 interaction (luminescence, %)", "setting": "[7]", "result": 35.5, "unit": "%"}, {"measurement": "Intracellular K-Ras(G12D)^GTP–BRAF interaction (luminescence, %)", "setting": "[8]", "result": 53.8, "unit": "%"}, {"measurement": "Peak area value", "setting": "[9]; Input (NT, no-serum treatment)", "result": "491,842"}, {"measurement": "recovery", "setting": "[9]; input control without serum treatment, Input (NT, no-serum treatment), read-out: Recovery rate (%)", "result": 100, "unit": "%"}, {"measurement": "Stability in rat plasma (in words)", "setting": "[9]; rat plasma, 37 °C, 24 h", "result": "remained intact for up to at least 24 h"}, {"measurement": "Peak area value", "setting": "[9]; rat plasma, 37 °C, incubation time 24 h", "result": "467,142"}, {"measurement": "recovery at 24 h, 0.476 mM", "setting": "[9]; rat plasma, 37 °C, incubation time 24 h, read-out: Recovery rate (%)", "result": 95, "unit": "%"}, {"measurement": "remaining at 24 h, 0.476 mM", "setting": "[9]; rat plasma, 37 °C, incubation time 24 h, read-out: Residual rate (%)", "result": 98.6, "unit": "%"}, {"measurement": "Peak area value", "setting": "[9]; [12]", "result": "473,575"}, {"measurement": "Residual rate (%)", "setting": "[9]; [12]", "result": 100, "unit": "%"}, {"measurement": "recovery at 0 h, 0.476 mM", "setting": "[9]; rat plasma, incubation time 0 h, read-out: Recovery rate (%)", "result": 96.3, "unit": "%"}, {"measurement": "Detection in plasma by RP-HPLC", "setting": "[10]; 20 mg/kg iv, 15 min and 1 h after injection", "result": "detected"}, {"measurement": "Detection in plasma by RP-HPLC", "setting": "[10]; 20 mg/kg iv, 4 h and 24 h after injection", "result": "not detected"}, {"measurement": "peptide concentration in the blood", "setting": "[10]; 20 mg/kg iv, for at least 1 h after the injection", "result": "more than 30 μM"}, {"measurement": "half-life", "setting": "[10]; male, Slc:ICR, mouse, plasma, 20 mg/kg intravenous injection, n = 3, read-out: blood circulation half-life (t1/2) in the elimination phase", "result": "1 ± 0.0317", "unit": "h"}, {"measurement": "Adverse side effects (loss of body weight, organ swelling of liver and kidney)", "setting": "[11]; both xenografts", "result": "without any adverse side effects"}, {"measurement": "cell growth of PANC-1 (pancreas weight; Sham = 0%, vehicle = 100%)", "setting": "[11]; orthotopic xenograft", "result": 65, "unit": "%"}]}]}
